Test results: PubChem BioAssay AID330 (DTP/NCI, 2004)
Several values for one entry are separate records, joined by “and”; a condition that tells them apart may be missing. Equal values may be shown once. Toxic doses and inconclusive results are not listed.

System: P388 leukemia ip, CD2F1 mice, survival T/C
Test: NCI In Vivo Anticancer Drug Screen. Data for tumor model P388 Leukemia (intraperitoneal) in CD2F1 (CDF1) mice
Settings: endpoint: median survival time, higher = longer survival
In short: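 Mice carrying the transplanted tumor received test compound or vehicle. Survival was recorded in each group, and the value is the treated-group measurement divided by that of the vehicle-treated control group.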

[1] = dose: 50.0 mg/kg/injection, schedule: Q01DX005 (ip), vehicle: Klucel (hydroxypropylcellulose) (HPC)
[2] = dose: 100.0 mg/kg/injection, schedule: Q01DX005 (ip), vehicle: Klucel (hydroxypropylcellulose) (HPC)
[3] = dose: 200.0 mg/kg/injection, schedule: Q01DX005 (ip), vehicle: Klucel (hydroxypropylcellulose) (HPC)
[4] = dose: 60.0 mg/kg/injection, schedule: Q01DX005 (ip), vehicle: saline with Tween-80
[5] = dose: 50.0 mg/kg/injection, schedule: Q01DX005 (ip), vehicle: saline with Tween-80
[6] = dose: 100.0 mg/kg/injection, schedule: Q01DX005 (ip), vehicle: saline with Tween-80
[7] = dose: 200.0 mg/kg/injection, schedule: Q01DX005 (ip), vehicle: saline with Tween-80

Cc1c(COC(=O)NC2CCCCC2)c(COC(=O)NC2CCCCC2)c2n1CCc1ccccc1-2
T/C (dose: 12.5 mg/kg/injection, schedule: Q01DX009 (ip), vehicle: distilled water + Tween-80): 178 % of control
T/C (dose: 25.0 mg/kg/injection, schedule: Q01DX009 (ip), vehicle: distilled water + Tween-80): 182 % of control
T/C (dose: 50.0 mg/kg/injection, schedule: Q01DX009 (ip), vehicle: distilled water + Tween-80): 101 % of control

O=C(Nc1ccc(NC2=NCCN2)cc1)c1cccc(C(=O)Nc2ccc(NC3=NCCN3)cc2)c1
T/C (dose: 5.0 mg/kg/injection, schedule: Q01DX009 (ip), vehicle: saline with Tween-80): 109 % of control
T/C (dose: 30.0 mg/kg/injection, schedule: Q01DX009 (ip), vehicle: saline with Tween-80): 100 % of control

COc1cccc2c1C(=O)c1c(O)c3c(c(O)c1C2=O)C[C@@](O)(/C(CO)=N/NS(=O)(=O)c1ccc(C)cc1)C[C@@H]3OC1CC(N)C(O)C(C)O1 (stereo partly specified)
T/C (dose: 0.2 mg/kg/injection, schedule: Q01DX009 (ip), vehicle: water): 105 % of control
T/C (dose: 0.39 mg/kg/injection, schedule: Q01DX009 (ip), vehicle: water): 112 % of control
T/C (dose: 0.78 mg/kg/injection, schedule: Q01DX009 (ip), vehicle: water): 94 % of control
T/C (dose: 1.56 mg/kg/injection, schedule: Q01DX009 (ip), vehicle: water): 116 % of control and 118 % of control

C=C(C)C1=CC(=O)C2CCCC(C)C2(C)C1OC(C)=O (stereo unspecified)
T/C (dose: 75.0 mg/kg/injection, schedule: Q01DX001 (ip), vehicle: Klucel (hydroxypropylcellulose) (HPC)): 100 % of control
T/C (dose: 150.0 mg/kg/injection, schedule: Q01DX001 (ip), vehicle: Klucel (hydroxypropylcellulose) (HPC)): 106 % of control
T/C (dose: 300.0 mg/kg/injection, schedule: Q01DX001 (ip), vehicle: Klucel (hydroxypropylcellulose) (HPC)): 107 % of control

COc1cc(O)c(C(C)c2ccccc2)cc1N=NC(N)=O (stereo unspecified)
T/C (dose: 6.25 mg/kg/injection, schedule: Q01DX005 (ip), vehicle: saline with Tween-80): 96 % of control
T/C (dose: 12.5 mg/kg/injection, schedule: Q01DX005 (ip), vehicle: saline with Tween-80): 90 % of control
T/C (dose: 25.0 mg/kg/injection, schedule: Q01DX005 (ip), vehicle: saline with Tween-80): 89 % of control

CN(NC1OC(=O)c2ccccc21)c1ccc(C(F)(F)F)cc1[N+](=O)[O-] (stereo unspecified)
T/C (dose: 60.0 mg/kg/injection, schedule: Q01DX005 (ip), vehicle: Klucel (hydroxypropylcellulose) (HPC)): 95 % of control
T/C (dose: 120.0 mg/kg/injection, schedule: Q01DX005 (ip), vehicle: Klucel (hydroxypropylcellulose) (HPC)): 98 % of control
T/C (dose: 240.0 mg/kg/injection, schedule: Q01DX005 (ip), vehicle: Klucel (hydroxypropylcellulose) (HPC)): 100 % of control

N#Cc1ccc(-c2ccccc2)nc1Cl
T/C (dose: 25.0 mg/kg/injection, schedule: Q01DX005 (ip), vehicle: Klucel (hydroxypropylcellulose) (HPC)): 98 % of control
T/C [1]: 98 % of control
T/C [2]: 93 % of control
T/C [3]: 102 % of control

CCC1(C)COC(=O)C1=C(C(=O)OC)C(=O)OC (stereo unspecified)
T/C (dose: 100.0 mg/kg/injection, schedule: Q04DX003 (ip), vehicle: saline): 112 % of control
T/C (dose: 200.0 mg/kg/injection, schedule: Q04DX003 (ip), vehicle: saline): 113 % of control
T/C (dose: 400.0 mg/kg/injection, schedule: Q04DX003 (ip), vehicle: saline): 105 % of control

CC(C)=CCCC(C)(OC1OC(COC2OC(CO)C(O)C(O)C2O)C(O)C(O)C1O)C1CCC2(C)C1C(O)CC1C3(C)CCC(OC4OC(CO)C(O)C(O)C4OC4OC(CO)C(O)C(O)C4O)C(C)(C)C3CCC12C (stereo unspecified)
T/C (dose: 2.0 mg/kg/injection, schedule: Q01DX009 (ip), vehicle: Klucel (hydroxypropylcellulose) (HPC)): 102 % of control
T/C (dose: 4.0 mg/kg/injection, schedule: Q01DX009 (ip), vehicle: Klucel (hydroxypropylcellulose) (HPC)): 95 % of control
T/C (dose: 8.0 mg/kg/injection, schedule: Q01DX009 (ip), vehicle: Klucel (hydroxypropylcellulose) (HPC)): 98 % of control
T/C (dose: 16.0 mg/kg/injection, schedule: Q01DX009 (ip), vehicle: Klucel (hydroxypropylcellulose) (HPC)): 93 % of control
T/C (dose: 32.0 mg/kg/injection, schedule: Q01DX009 (ip), vehicle: Klucel (hydroxypropylcellulose) (HPC)): 88 % of control

C[C@]12CC[C@H]3[C@@H](CCC4=CC(=O)CC[C@@H]43)[C@@H]1CC[C@@H]2OC(=O)N(CCCl)N=O
T/C (dose: 12.5 mg/kg/injection, schedule: Q01DX009 (ip), vehicle: other): 123 % of control
T/C (dose: 15.0 mg/kg/injection, schedule: Q01DX009 (ip), vehicle: saline): 96 % of control
T/C (dose: 15.0 mg/kg/injection, schedule: Q04DX003 (ip), vehicle: saline): 100 % of control and 107 % of control
T/C (dose: 25.0 mg/kg/injection, schedule: Q01DX005 (ip), vehicle: other): 104 % of control
T/C (dose: 25.0 mg/kg/injection, schedule: Q01DX009 (ip), vehicle: other): 118 % of control
T/C (dose: 30.0 mg/kg/injection, schedule: Q01DX009 (ip), vehicle: saline): 86 % of control
T/C (dose: 30.0 mg/kg/injection, schedule: Q04DX003 (ip), vehicle: saline): 101 % of control and 106 % of control and 112 % of control
T/C (dose: 50.0 mg/kg/injection, schedule: Q01DX005 (ip), vehicle: other): 96 % of control
T/C (dose: 60.0 mg/kg/injection, schedule: Q01DX009 (ip), vehicle: saline): 91 % of control
T/C (dose: 60.0 mg/kg/injection, schedule: Q04DX003 (ip), vehicle: saline): 98 % of control and 101 % of control and 120 % of control
T/C (dose: 120.0 mg/kg/injection, schedule: Q01DX009 (ip), vehicle: saline with Tween-80): 86 % of control
T/C (dose: 120.0 mg/kg/injection, schedule: Q01DX009 (ip), vehicle: saline): 92 % of control
T/C (dose: 120.0 mg/kg/injection, schedule: Q04DX003 (ip), vehicle: saline): 102 % of control and 106 % of control

S=C(Nc1ccc(N=Nc2ccccc2)cc1)SCc1ccc2c(c1)OCO2
T/C (dose: 50.0 mg/kg/injection, schedule: Q01DX009 (ip), vehicle: suspension in saline): 96 % of control
T/C (dose: 100.0 mg/kg/injection, schedule: Q01DX009 (ip), vehicle: suspension in saline): 90 % of control
T/C (dose: 200.0 mg/kg/injection, schedule: Q01DX009 (ip), vehicle: suspension in saline): 92 % of control

CNC1C(O)C(OC2C(N)CC(N)C(OC3OC(C(C)O)C(O)C(O)C3N)C2O)OCC1(C)O (stereo unspecified)
T/C (dose: 7.5 mg/kg/injection, schedule: Q01DX005 (ip), vehicle: saline): 108 % of control
T/C (dose: 15.0 mg/kg/injection, schedule: Q01DX005 (ip), vehicle: saline): 107 % of control
T/C (dose: 30.0 mg/kg/injection, schedule: Q01DX005 (ip), vehicle: saline): 101 % of control

CCCCCCCC(=O)c1c(O)c2ccccc2oc1=O
T/C (dose: 15.0 mg/kg/injection, schedule: Q01DX005 (ip), vehicle: saline with Tween-80): 102 % of control
T/C (dose: 30.0 mg/kg/injection, schedule: Q01DX005 (ip), vehicle: saline with Tween-80): 105 % of control
T/C [4]: 103 % of control and 96 % of control

O=c1c2ncn(C3OC(CO)C(O)C3O)c2nc2n(C3OC(CO)C(O)C3O)cnn12 (stereo unspecified)
T/C (dose: 60.0 mg/kg/injection, schedule: Q01DX005 (ip), vehicle: saline): 109 % of control
T/C (dose: 120.0 mg/kg/injection, schedule: Q01DX005 (ip), vehicle: saline): 117 % of control
T/C (dose: 240.0 mg/kg/injection, schedule: Q01DX005 (ip), vehicle: saline): 122 % of control

CCOC(=O)NC(=Cc1ccccn1)c1ccc(Cl)cc1 (mixture of isomers)
T/C [4]: 103 % of control
T/C (dose: 120.0 mg/kg/injection, schedule: Q01DX005 (ip), vehicle: saline with Tween-80): 97 % of control
T/C (dose: 240.0 mg/kg/injection, schedule: Q01DX005 (ip), vehicle: saline with Tween-80): 93 % of control

CC(C)(C)n1nnnc1N
T/C (dose: 12.5 mg/kg/injection, schedule: Q01DX009 (ip), vehicle: Klucel (hydroxypropylcellulose) (HPC)): 100 % of control
T/C (dose: 25.0 mg/kg/injection, schedule: Q01DX009 (ip), vehicle: Klucel (hydroxypropylcellulose) (HPC)): 94 % of control
T/C (dose: 50.0 mg/kg/injection, schedule: Q01DX009 (ip), vehicle: Klucel (hydroxypropylcellulose) (HPC)): 105 % of control and 112 % of control
T/C (dose: 200.0 mg/kg/injection, schedule: Q01DX009 (ip), vehicle: Klucel (hydroxypropylcellulose) (HPC)): 103 % of control

NC(=O)/C(N=Nc1ccccc1S(=O)(=O)O)=N/Nc1ccccc1S(=O)(=O)O
T/C [1]: 100 % of control
T/C [2]: 101 % of control and 92 % of control
T/C [3]: 101 % of control and 94 % of control

COc1cc(C2c3cc(O)c(OC)cc3CC(C(=O)O)C2CO)ccc1O (stereo unspecified)
T/C [5]: 100 % of control
T/C [6]: 97 % of control
T/C [7]: 98 % of control

C/C(N=NC(=S)N1CC2CCC(CC2)C1)=C1\C=CC=CN1O
T/C [5]: 105 % of control
T/C [6]: 98 % of control
T/C [7]: 101 % of control
